Experimental data: patent US10961309B2, “Reducing systemic regulatory T cell levels or activity for treatment of disease and injury of the CNS” (Yeda Research and Development Co. Ltd, priority 2014, dated 2021)

Key:
GFP+ mo-MΦ = experiment: Homing of GFP+ mo-MΦ in AD-Tg/CX3CR1GFP/+ BM chimeras; type: in vivo, mouse
Description: Tissue processing and immunohistochemistry were performed on paraffin embedded sectioned mouse (6 μm thick) and human (10 μm thick) brains. For human ICAM-1 staining, primary mouse anti-ICAM (1:20 Abcam; ab2213) antibody was used. Slides were incubated for 10 min with 3% H2O2, and a secondary biotin-conjugated anti-mouse antibody was used, followed by biotin/avidin amplification with Vectastain ABC kit (Vector Laboratories). Subsequently, 3,3′-diaminobenzidine (DAB substrate) (Zytomed kit) was applied; slides were dehydrated and mounted with xylene-based mounting solution. For tissue stainings, mice were transcardially perfused with PBS prior to tissue excision and fixation. CP tissues were isolated under a dissecting microscope (Stemi DV4; Zeiss) from the lateral, third, and fourth ventricles of the brain. […] Microscopic analysis, was performed using a fluorescence microscope (E800; Nikon) or laser-scanning confocal microscope (Carl Zeiss, Inc.). The fluorescence microscope was equipped with a digital camera (DXM 1200F; Nikon), and with either a 20× NA 0.50 or 40× NA 0.75 objective lens (Plan Fluor; Nikon). […] For quantification of staining intensity, total cell and background staining was measured using ImageJ software (NIH), and intensity of specific staining was calculated, as previously described (Burgess et al, 2010). […]

[1] = tested on: APP/PS1 mouse model of AD; conditions: weekly administration regimen (Butovsky et al, 2006); cited from earlier work

Glatiramer acetate [GA]
homing of GFP+ mo-MΦ to the CP and adjacent ventricular spaces (GFP+ mo-MΦ; weekly-GA vs vehicle-treated AD-Tg/CX3CR1GFP/+ controls): increased homing | GFP+ mo-MΦ in the brain parenchyma (immunohistochemistry) (GFP+ mo-MΦ; weekly-GA, AD-Tg/CX3CR1GFP/+ chimeras): accumulation at sites of cerebral plaque formation | effect in the APP/PS1 mouse model of AD [1]: therapeutic effect
